Experimental data as given in patent US9120791B2, “Indolizine compounds, a process for their preparation and pharmaceutical compositions containing them” (LES LABORATOIRES SERVIER, priority 2012, dated 2015).
Where a name gives a salt, the structure may show the parent alone.

Key:
[1] = target: Bcl-2 protein (Homo sapiens (Human), UniProt P10415); experiment: Inhibition of Bcl-2 by the fluorescence polarisation technique; type: binding; conditions: fluorescence polarisation test; concentration that inhibits fluorescence polarisation by 50%; read-out: IC50 (nM) Bcl-2 FP
Bcl-2 protein, sequence (P10415 whole entry): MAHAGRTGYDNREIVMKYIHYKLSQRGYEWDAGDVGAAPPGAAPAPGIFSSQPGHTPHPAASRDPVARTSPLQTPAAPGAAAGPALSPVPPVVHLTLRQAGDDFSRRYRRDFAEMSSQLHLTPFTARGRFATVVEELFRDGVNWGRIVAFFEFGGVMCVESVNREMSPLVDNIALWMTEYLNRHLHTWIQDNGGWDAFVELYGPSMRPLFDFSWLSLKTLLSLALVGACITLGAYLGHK
Protocol: The fluorescence polarisation tests were carried out on microplates (384 wells). […] After incubation for 2 hours, the fluorescence polarisation is measured.

[2] = system: RS4;11 leukaemia tumour line; experiment: In vitro cytotoxicity (Microculture Tetrazolium Assay, 48 hours); type: cell-based; conditions: Homo sapiens, RS4;11 cells, 48 hours exposure, MTT, concentration that inhibits cell viability by 50%, read-out: IC50 (nM) MTT RS4
Protocol: The cytotoxicity studies were carried out on the RS4;11 leukaemia tumour line.
The cells are distributed onto microplates and exposed to the test compounds for 48 hours.

Row | SMILES | IC50 [1] [nM] | IC50 [2] [nM]
1 | CC(C)n1ccc2cc(N(C(=O)c3cc(-c4cc5c(cc4C(=O)N4Cc6ccccc6C[C@H]4CN4CCOCC4)OCO5)n4ccccc34)c3ccc(O)cc3)ccc21 [Example 62, N-(4-Hydroxyphenyl)-N-(1-isopropyl-1H-indol-5-yl)-3-{6-[((3S)-3-(4-morpholinylmethyl)-3,4-dihydro-2(1H)-isoquinolinyl)carbonyl]-1,3-benzodioxol-5-yl}-1-indolizine carboxamide hydrochloride] | 22 | 19.3
2 | CCN1CCc2cc(N(C(=O)c3cc(-c4cc5c(cc4C(=O)N4Cc6ccccc6C[C@H]4CN4CCOCC4)OCO5)n4ccccc34)c3ccc(O)cc3)ccc21 [Example 63, N-(1-Ethyl-2,3-dihydro-1H-indol-5-yl)-N-(4-hydroxyphenyl)-3-{6-[((3S)-3-(4-morpholinylmethyl)-3,4-dihydro-2(1H)-isoquinolinyl)carbonyl]-1,3-benzodioxol-5-yl}-1-indolizine carboxamide hydrochloride] | 21 | 18.8
3 | CC(C)N1CCc2cc(N(C(=O)c3cc(-c4cc5c(cc4C(=O)N4Cc6ccccc6C[C@H]4CN4CCOCC4)OCO5)n4ccccc34)c3ccc(O)cc3)ccc21 [Example 64, N-(4-Hydroxyphenyl)-N-(1-isopropyl-2,3-dihydro-1H-indol-5-yl)-3-{6-[((3S)-3-(4-morpholinylmethyl)-3,4-dihydro-2(1H)-isoquinolinyl)carbonyl]-1,3-benzodioxol-5-yl}-1-indolizine carboxamide hydrochloride] | 31 | 23.3
4 | CN1CCN(C[C@@H]2Cc3ccccc3CN2C(=O)c2ccc(Cl)cc2-c2cc(C(=O)N(c3ccc(O)cc3)c3ccc4c(ccn4C)c3)c3ccccn23)CC1 [Example 65, 3-{5-Chloro-2-[((3S)-3-[(4-methyl-1-piperazinyl)methyl]-3,4-dihydro-2(1H)-isoquinolinyl)carbonyl]phenyl}-N-(4-hydroxyphenyl)-N-(1-methyl-1H-indol-5-yl)-1-indolizine carboxamide bis(hydrochloride)] | 14 | 9.19
5 | CN1CCCc2cc(N(C(=O)c3cc(-c4cc5c(cc4C(=O)N4Cc6ccccc6C[C@H]4CN4CCOCC4)OCCO5)n4ccccc34)c3ccc(O)cc3)ccc21 [Example 69, N-(4-Hydroxyphenyl)-N-(1-methyl-1,2,3,4-tetrahydro-6-quinolinyl)-3-{7-[((3S)-3-(4-morpholinylmethyl)-3,4-dihydro-2(1H)-isoquinolinyl)carbonyl]-2,3-dihydro-1,4-benzodioxin-6-yl}-1-indolizine carboxamide hydrochloride] | 26 | 16.7
6 | Cn1ccc2cc(N(C(=O)c3cc(-c4cc5c(cc4C(=O)N4Cc6ccccc6C[C@H]4CN4CCOCC4)OCCO5)n4ccccc34)c3ccc(O)cc3)ccc21 [Example 70, N-(4-Hydroxyphenyl)-N-(1-methyl-1H-indol-5-yl)-3-{7-[((3S)-3-(4-morpholinylmethyl)-3,4-dihydro-2(1H)-isoquinolinyl)carbonyl]-2,3-dihydro-1,4-benzodioxin-6-yl}-1-indolizine carboxamide hydrochloride] | 19 | 14
7 | COc1ccc(C(=O)N2Cc3ccccc3C[C@H]2CN2CCOCC2)c(-c2cc(C(=O)N(c3ccc(O)cc3)c3ccc4c(ccn4C)c3)c3ccccn23)c1 [Example 71, N-(4-Hydroxyphenyl)-3-{5-methoxy-2-[((3S)-3-(4-morpholinylmethyl)-3,4-dihydro-2(1H)-isoquinolinyl)carbonyl]phenyl}-N-(1-methyl-1H-indol-5-yl)-1-indolizine carboxamide hydrochloride] | 21 | 24.4
8 | Cn1ccc2cc(N(C(=O)c3cc(-c4cc5c(cc4C(=O)N4Cc6ccccc6C[C@H]4CN4CCOCC4)OCO5)n4c3CNCC4)c3ccc(O)cc3)ccc21 [Example 74, N-(4-Hydroxyphenyl)-N-(1-methyl-1H-indol-5-yl)-6-{6-[((3S)-3-(4-morpholinylmethyl)-3,4-dihydro-2(1H)-isoquinolinyl)carbonyl]-1,3-benzodioxol-5-yl}-1,2,3,4-tetrahydropyrrolo[1,2-a]pyrazine-8-carboxamide bis(hydrochloride)] | 24 | 241
9 | CN1CCN(C[C@@H]2Cc3ccccc3CN2C(=O)c2cc3c(cc2-c2cc(C(=O)N(c4ccc(O)cc4)c4ccc5c(ccn5C)c4)c4n2CCC4)OCO3)CC1 [Example 76, N-(4-Hydroxyphenyl)-N-(1-methyl-1H-indol-5-yl)-5-{6-[((3S)-3-[(4-methyl-1-piperazinyl)methyl]-3,4-dihydro-2(1H)-isoquinolinyl)carbonyl]-1,3-benzodioxol-5-yl}-2,3-dihydro-1H-pyrrolizine-7-carboxamide bis(hydrochloride)] | 17 | 49
10 | CN1CCN(C[C@@H]2Cc3ccccc3CN2C(=O)c2ccc(Cl)cc2-c2cc(C(=O)N(c3ccc(O)cc3)c3ccc4c(ccn4C)c3)c3n2CCC3)CC1 [Example 77, 5-{5-Chloro-2-[((3S)-3-[(4-methyl-1-piperazinyl)methyl]-3,4-dihydro-2(1H)-isoquinolinyl)carbonyl]phenyl}-N-(4-hydroxyphenyl)-N-(1-methyl-1H-indol-5-yl)-2,3-dihydro-1H-pyrrolizine-7-carboxamide bis(hydrochloride)] | 23 | 70.4

More lines, main results first:

Row | IC50 [1] [nM] | SMILES | IC50 [2] [nM]
11 | 31 | O=C(c1cc(-c2cc(Cl)ccc2C(=O)N2Cc3ccccc3C[C@H]2CN2CCOCC2)n2c1COCC2)N(c1ccc(O)cc1)c1ccc2c(c1)CCN2 [Example 79, 6-{5-Chloro-2-[((3S)-3-(4-morpholinylmethyl)-3,4-dihydro-2(1H)-isoquinolinyl)carbonyl]phenyl}-N-(2,3-dihydro-1H-indol-5-yl)-N-(4-hydroxyphenyl)-3,4-dihydro-1H-pyrrolo[2,1-c][1,4]oxazine-8-carboxamide bis(hydrochloride)] | 67.5
12 | 18 | Cn1ccc2cc(N(C(=O)c3cc(-c4cc5c(cc4C(=O)N4Cc6ccccc6C[C@H]4CN4CCOCC4)OCO5)n4c3COCC4)c3ccc(O)cc3)ccc21 [Example 80, N-(4-Hydroxyphenyl)-N-(1-methyl-1H-indol-5-yl)-6-{6-[((3S)-3-(4-morpholinylmethyl)-3,4-dihydro-2(1H)-isoquinolinyl)carbonyl]-1,3-benzodioxol-5-yl}-3,4-dihydro-1H-pyrrolo[2,1-c][1,4]oxazine-8-carboxamide] | 18.8
13 | 28 | CN1CCc2cc(N(C(=O)c3cc(-c4cc5c(cc4C(=O)N4Cc6ccccc6C[C@H]4CN4CCOCC4)OCO5)n4c3COCC4)c3ccc(O)cc3)ccc21 [Example 81, N-(4-Hydroxyphenyl)-N-(1-methyl-2,3-dihydro-1H-indol-5-yl)-6-{6-[((3S)-3-(4-morpholinylmethyl)-3,4-dihydro-2(1H)-isoquinolinyl)carbonyl]-1,3-benzodioxol-5-yl}-3,4-dihydro-1H-pyrrolo[2,1-c][1,4]oxazine-8-carboxamide hydrochloride] | 39.3
14 | 33 | Cc1ccc(N(C(=O)c2cc(-c3cc(Cl)ccc3C(=O)N3Cc4ccccc4C[C@H]3CN3CCOCC3)n3c2COCC3)c2ccc(O)cc2)cc1F [Example 82, 6-{5-Chloro-2-[((3S)-3-(4-morpholinylmethyl)-3,4-dihydro-2(1H)-isoquinolinyl)carbonyl]phenyl}-N-(3-fluoro-4-methylphenyl)-N-(4-hydroxyphenyl)-3,4-dihydro-1H-pyrrolo[2,1-c][1,4]oxazine-8-carboxamide hydrochloride] | 21.9
15 | 41 | O=C(c1cc(-c2cc(Cl)ccc2C(=O)N2Cc3ccccc3C[C@H]2CN2CCOCC2)n2c1CCCC2)N(c1ccc(O)cc1)c1ccsc1 [Example 85, 3-{5-Chloro-2-[((3S)-3-(4-morpholinylmethyl)-3,4-dihydro-2(1H)-isoquinolinyl)carbonyl]phenyl}-N-(4-hydroxyphenyl)-N-(3-thienyl)-5,6,7,8-tetrahydro-1-indolizine carboxamide hydrochloride] | 246
16 | 22 | Cn1ccc2cc(N(C(=O)c3cc(-c4cc(Cl)ccc4C(=O)N4Cc5ccccc5C[C@H]4CN4CCOCC4)n4c3COCC4)c3ccc(O)cc3)ccc21 [Example 86, 6-{5-Chloro-2-[((3S)-3-(4-morpholinylmethyl)-3,4-dihydro-2(1H)-isoquinolinyl)carbonyl]phenyl}-N-(4-hydroxyphenyl)-N-(1-methyl-1H-indol-5-yl)-3,4-dihydro-1H-pyrrolo[2,1-c][1,4]oxazine-8-carboxamide hydrochloride] | 29.5
17 | 8 | Cc1ccc(N(C(=O)c2cc(-c3cc(F)ccc3C(=O)N3Cc4ccccc4C[C@H]3CN3CCOCC3)n3c2CCCC3)c2ccc(O)cc2)cc1F [Example 91, N-(3-Fluoro-4-methylphenyl)-3-(5-fluoro-2-{[(3S)-3-(morpholin-4-ylmethyl)-3,4-dihydroisoquinolin-2(1H)-yl]carbonyl}phenyl)-N-(4-hydroxyphenyl)-5,6,7,8-tetrahydroindolizine-1-carboxamide hydrochloride] | 65.5
18 | 5 | Cc1ccc(N(C(=O)c2cc(-c3cc4c(cc3C(=O)N3Cc5ccccc5C[C@H]3CN3CCOCC3)OCO4)n3c2COCC3)c2ccc(O)cc2)cc1F [Example 92, N-(3-Fluoro-4-methylphenyl)-N-(4-hydroxyphenyl)-6-(6-{[(3S)-3-(morpholin-4-ylmethyl)-3,4-dihydroisoquinolin-2(1H)-yl]carbonyl}-1,3-benzodioxol-5-yl)-3,4-dihydro-1H-pyrrolo[2,1-c][1,4]oxazine-8-carboxamide hydrochloride] | 40.2
